PubChem BioAssay (NCI)
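Compound exposure: 48 hours, 5 concentrations, 96-well plates. TGI is the concentration that stops growth completely.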

Assays:
Experiment in all cases: NCI anticancer screen, dose series, 48 h
MDA-N = system: MDA-N
TK-10 renal = system: TK-10 renal
RXF 393 renal = system: RXF 393 renal
MCF7 breast = system: MCF7 breast
HT29 colon = system: HT29 colon
K-562 leukemia = system: K-562 leukemia
UO-31 renal = system: UO-31 renal
SK-MEL-5 melanoma = system: SK-MEL-5 melanoma
HOP-62 NSCLC = system: HOP-62 NSCLC
HCC-2998 colon = system: HCC-2998 colon
RPMI-8226 leukemia = system: RPMI-8226 leukemia
SN12C renal = system: SN12C renal
ACHN renal = system: ACHN renal
BT-549 breast = system: BT-549 breast
LOX IMVI melanoma = system: LOX IMVI melanoma
KM12 colon = system: KM12 colon
HCT-15 colon = system: HCT-15 colon
MOLT-4 leukemia = system: MOLT-4 leukemia
SNB-75 CNS = system: SNB-75 CNS
OVCAR-8 ovarian = system: OVCAR-8 ovarian
SF-539 CNS = system: SF-539 CNS
OVCAR-4 ovarian = system: OVCAR-4 ovarian
786-0 renal = system: 786-0 renal
A498 renal = system: A498 renal
UACC-62 melanoma = system: UACC-62 melanoma
U251 CNS = system: U251 CNS
SF-295 CNS = system: SF-295 CNS
PC-3 prostate = system: PC-3 prostate
M14 melanoma = system: M14 melanoma
OVCAR-5 ovarian = system: OVCAR-5 ovarian
SK-MEL-2 melanoma = system: SK-MEL-2 melanoma
MALME-3M melanoma = system: MALME-3M melanoma
HOP-92 NSCLC = system: HOP-92 NSCLC
SK-OV-3 ovarian = system: SK-OV-3 ovarian
HS 578T breast = system: HS 578T breast
NCI/ADR-RES ovarian = system: NCI/ADR-RES ovarian
NCI-H23 lung = system: NCI-H23 lung
CCRF-CEM leukemia = system: CCRF-CEM leukemia
EKVX NSCLC = system: EKVX NSCLC
OVCAR-3 ovarian = system: OVCAR-3 ovarian
COLO 205 colon = system: COLO 205 colon
A549 NSCLC = system: A549 NSCLC
IGROV1 ovarian = system: IGROV1 ovarian
T-47D breast = system: T-47D breast
CAKI-1 renal = system: CAKI-1 renal
SR leukemia = system: SR leukemia
SF-268 CNS = system: SF-268 CNS
NCI-H226 lung = system: NCI-H226 lung
MDA-MB-435 = system: MDA-MB-435
SW-620 colon = system: SW-620 colon
HL-60(TB) leukemia = system: HL-60(TB) leukemia
SNB-19 CNS = system: SNB-19 CNS
NCI-H522 lung = system: NCI-H522 lung
UACC-257 melanoma = system: UACC-257 melanoma
HCT-116 colon = system: HCT-116 colon
MDA-MB-231 breast = system: MDA-MB-231 breast
DU-145 prostate = system: DU-145 prostate
NCI-H460 lung = system: NCI-H460 lung
SK-MEL-28 melanoma = system: SK-MEL-28 melanoma

Structure (SMILES): CC(=O)O[C@H]1CC[C@@]2(C)C(=CC[C@@H]3[C@@H]2CC[C@]2(C)C(=N/O)/C(=C\c4ccccc4)C[C@@H]32)C1
- TGI (MDA-N): 99.4 µM
- TGI (TK-10 renal): 78.8 µM
- TGI (RXF 393 renal): 40 µM
- TGI (MCF7 breast): > 100 µM
- TGI (HT29 colon): > 100 µM
- TGI (K-562 leukemia): > 100 µM
- TGI (UO-31 renal): > 59.2 µM
- TGI (SK-MEL-5 melanoma): 11.4 µM
- TGI (HOP-62 NSCLC): 71.6 µM
- TGI (HCC-2998 colon): 32 µM
- TGI (RPMI-8226 leukemia): > 100 µM
- TGI (SN12C renal): 38.1 µM
- TGI (ACHN renal): > 100 µM
- TGI (BT-549 breast): > 100 µM
- TGI (LOX IMVI melanoma): 26 µM
- TGI (KM12 colon): 10.6 µM
- TGI (HCT-15 colon): > 100 µM
- TGI (MOLT-4 leukemia): > 28.5 µM
- TGI (SNB-75 CNS): > 100 µM
- TGI (OVCAR-8 ovarian): > 100 µM
- TGI (SF-539 CNS): 83.3 µM
- TGI (OVCAR-4 ovarian): > 100 µM
- TGI (786-0 renal): > 55.4 µM
- TGI (A498 renal): 33 µM
- TGI (UACC-62 melanoma): 31.9 µM
- TGI (U251 CNS): > 81.5 µM
- TGI (SF-295 CNS): 67.1 µM
- TGI (PC-3 prostate): > 100 µM
- TGI (M14 melanoma): 39.3 µM
- TGI (OVCAR-5 ovarian): 70.2 µM
- TGI (SK-MEL-2 melanoma): 39.2 µM
- TGI (MALME-3M melanoma): 24.7 µM
- TGI (HOP-92 NSCLC): 88.5 µM
- TGI (SK-OV-3 ovarian): > 100 µM
- TGI (HS 578T breast): 50.9 µM
- TGI (NCI/ADR-RES ovarian): > 72.9 µM
- TGI (NCI-H23 lung): > 100 µM
- TGI (CCRF-CEM leukemia): > 100 µM
- TGI (EKVX NSCLC): 51.2 µM
- TGI (OVCAR-3 ovarian): 54.7 µM
- TGI (COLO 205 colon): 32 µM
- TGI (A549 NSCLC): 97.5 µM
- TGI (IGROV1 ovarian): > 100 µM
- TGI (T-47D breast): > 93.7 µM
- TGI (CAKI-1 renal): > 100 µM
- TGI (SR leukemia): > 42.3 µM
- TGI (SF-268 CNS): > 80.8 µM
- TGI (NCI-H226 lung): 44.9 µM
- TGI (MDA-MB-435): > 33.1 µM
- TGI (SW-620 colon): > 60.9 µM
- TGI (HL-60(TB) leukemia): 49.3 µM
- TGI (SNB-19 CNS): > 100 µM
- TGI (NCI-H522 lung): 21.2 µM
- TGI (UACC-257 melanoma): 37.3 µM
- TGI (HCT-116 colon): > 100 µM
- TGI (MDA-MB-231 breast): 73.2 µM
- TGI (DU-145 prostate): > 91 µM
- TGI (NCI-H460 lung): 97.9 µM
- TGI (SK-MEL-28 melanoma): > 56.3 µM

Structure (SMILES): C[C@H]1[C@H](C)N1CC(O)Cn1ccnc1[N+](=O)[O-] (stereo partly drawn)
- TGI (MDA-N): > 100 µM
- TGI (TK-10 renal): > 100 µM
- TGI (RXF 393 renal): > 100 µM
- TGI (MCF7 breast): > 100 µM
- TGI (HT29 colon): > 100 µM
- TGI (K-562 leukemia): > 100 µM
- TGI (UO-31 renal): > 100 µM
- TGI (SK-MEL-5 melanoma): > 100 µM
- TGI (HOP-62 NSCLC): > 100 µM
- TGI (HCC-2998 colon): > 100 µM
- TGI (RPMI-8226 leukemia): > 100 µM
- TGI (SN12C renal): > 100 µM
- TGI (ACHN renal): > 100 µM
- TGI (BT-549 breast): > 100 µM
- TGI (LOX IMVI melanoma): > 100 µM
- TGI (KM12 colon): > 100 µM
- TGI (HCT-15 colon): > 100 µM
- TGI (MOLT-4 leukemia): > 100 µM
- TGI (SNB-75 CNS): > 100 µM
- TGI (OVCAR-8 ovarian): > 100 µM
- TGI (SF-539 CNS): > 100 µM
- TGI (OVCAR-4 ovarian): > 100 µM
- TGI (786-0 renal): > 100 µM
- TGI (A498 renal): > 100 µM
- TGI (UACC-62 melanoma): > 100 µM
- TGI (U251 CNS): > 100 µM
- TGI (SF-295 CNS): > 100 µM
- TGI (PC-3 prostate): > 100 µM
- TGI (M14 melanoma): > 100 µM
- TGI (OVCAR-5 ovarian): > 100 µM
- TGI (SK-MEL-2 melanoma): > 100 µM
- TGI (MALME-3M melanoma): > 100 µM
- TGI (HOP-92 NSCLC): > 100 µM
- TGI (SK-OV-3 ovarian): > 100 µM
- TGI (HS 578T breast): > 100 µM
- TGI (NCI/ADR-RES ovarian): > 100 µM
- TGI (NCI-H23 lung): > 100 µM
- TGI (CCRF-CEM leukemia): > 100 µM
- TGI (EKVX NSCLC): > 100 µM
- TGI (OVCAR-3 ovarian): > 100 µM
- TGI (COLO 205 colon): > 100 µM
- TGI (A549 NSCLC): > 100 µM
- TGI (IGROV1 ovarian): > 100 µM
- TGI (T-47D breast): > 100 µM
- TGI (CAKI-1 renal): > 100 µM
- TGI (SR leukemia): > 100 µM
- TGI (SF-268 CNS): > 100 µM
- TGI (NCI-H226 lung): > 100 µM
- TGI (MDA-MB-435): > 100 µM
- TGI (SW-620 colon): > 100 µM
- TGI (HL-60(TB) leukemia): > 100 µM
- TGI (SNB-19 CNS): > 100 µM
- TGI (NCI-H522 lung): > 100 µM
- TGI (UACC-257 melanoma): > 100 µM
- TGI (HCT-116 colon): > 100 µM
- TGI (MDA-MB-231 breast): > 100 µM
- TGI (DU-145 prostate): > 100 µM
- TGI (NCI-H460 lung): > 100 µM
- TGI (SK-MEL-28 melanoma): > 100 µM
